The text below walks through data of patent publication US11478445B2, “Method for treating acute myeloid leukemia” (Bionomics Limited, priority 2017, dated 2022).

Format in all cases: cell-based, human
In experiment [1] the test system is P-JNK^Thr183/Tyr185. Briefly: Western blot for P-JNK in primary AML sample L-AML6. The conditions noted are these: L-AML6, 48 h. On the procedure:
(§1) Cells were harvested (4×10^6 for cell lines and 7×10^6 for L-AMLs) and washed 3 times with cold PBS (centrifuged at 4° C.). Lysis buffer was prepared with NP40 Cell Lysis Buffer (ThermoFisher Scientific), cOmplete protease inhibitor (Roche, 046993116001), PhosStop (Roche, 04906837001) and Pefablock (Roche, 11585916001) at the recommended concentrations. After the washes, cells were resuspended in 50 μL of lysis buffer, vortexed and incubated on ice for 30 min. Samples were vortexed every 10 min. After 30 min incubation, samples were centrifuged at 14,000 g at 4° C. for 10 min and supernatants were transferred to tubes. Protein was quantified using the DC Protein Assay kit (BioRad) per manufacturer's protocol. 50 μg of cell lines lysate or 20 μg of L-AML6 lysate were loaded for SDS-PAGE. Protein was transferred from the gels into PVDF membranes using a semi dry transfer apparatus (BioRad). The membranes were blocked for 1 h at room temperature with 5% skim milk in 0.1% TBS-t and then incubated with gentle shaking with primary antibodies overnight at 4° C. […]
(§2) Western blot analysis. […] For L-AML6 cells P-JNK^Thr183/Tyr185 and Noxa expression were determined using the specific antibodies that have been validated in the cell line experiments (FIG. 4). […]

Experiment [2] deals with primary AML samples L-AML6 and L-AML419. Briefly: Blast cell colony assay (Methocult). The conditions noted are these: 13 days. How it is done: 1.5 mL of Methocult H4034 (STEMCELL Technologies) was aliquoted in 5 mL tubes (one tube/treatment/sample) and supplemented with 20 ng/mL of hIL-6 (Peprotech, 200-06). EX 1 and OXi4503 dilutions were added to respective tubes to the final concentrations 100 nM and 500 nM. DMSO was used as vehicle control. Samples were added to each tube to the final cell density: 2×10^4 cells/well for L-AML6 and L-AML419, 3×10^3 cells/well for AML136 and AML480. The tubes were shaken to mix drugs and cells with the Methocult and incubated at 37° C. for 10 min to remove bubbles. Samples were then plated in 24-well plates, 4 wells/treatment/sample in the 8 wells at the centre of the plate. The wells at the edges were filled with sterile water to avoid drying. Plates were incubated at 37° C. for 13 days before colonies were counted.
Blast cell colony assay. For colony assays AML MNC were plated in methylcellulose with added cytokines (see Methods) and colonies scored after 13 days. […] L-AML419 also formed a small number of colonies in the DMSO-treated wells, with fewer background cells.

Experiment [3] deals with Noxa. Briefly: Western blot for Noxa in primary AML sample L-AML6. The conditions noted are these: L-AML6, 48 h. On the procedure:
as §1, §2

The mark [4] stands for this setting: L-AML419, all doses (100 nM and 500 nM).

The structures appear in SMILES notation. Entries after “also recorded” stand apart in the source; their conditions may differ.

For the compound `COc1cc(C(=O)c2c(C)oc3c(O)c(OC)ccc23)cc(OC)c1OC` [EX 1, 2-Methyl-7-hydroxy-3-(3,4,5-trimethoxybenzoyl)-6-methoxybenzofuran], the P-JNK level result in experiment [1] (500 nM) was “small increase; also recorded: induced”. Also, the colony formation entry in experiment [2] (L-AML6, either dose (100 nM and 500 nM)) was “no colonies or background cells were observed; also recorded: Colony formation is blocked”; in experiment [2] (setting [4]), “completely blocked colony and background formation; also recorded: Colony formation is blocked”. In addition, the Noxa expression entry in experiment [3] was “no change was observed; also recorded: does not appear to change”.

`COc1cc(/C=C\c2ccc(OC)c(OP(=O)(O)O)c2OP(=O)(O)O)cc(OC)c1OC` [OXi4503, reference compound]: in experiment [1] (indicated doses), the P-JNK level result is recorded as “no apparent change”. Besides, the colony formation result was “reduced the background cells and also the number of colonies; also recorded: reduces colony formation” in experiment [2] (L-AML6, 100 nM); “completely blocked colony formation; also recorded: completely inhibits colonies” in experiment [2] (L-AML6, 500 nM); “completely blocked colony and background formation; also recorded: completely inhibits colonies” in experiment [2] (setting [4]). For the same compound, in experiment [3], the Noxa expression result was “no change was observed; also recorded: does not appear to change”.
